Measurements taken from patent publication US12648984B2, “Long term treatment of psoriasis” (priority 2023, dated 2026).

Tested on: extensive plaque psoriasis on the trunk
Test: one patient case: once-daily topical application on the whole trunk
Format: in vivo, human
Conditions: same patient; for effect of earlier treatments on redness and psoriasis: regular treatment before the composition (UVA, then hydrocortisone, then Acitretine); for status upon cessation of earlier treatments: upon cessation of earlier treatment
Source text: The composition has been evaluated in one patient case. A […], presenting extensive plaque psoriasis on the trunk for several years (illustration 1), was regularly treated with UVA, then hydrocortisone, then Acitretine.
They were provided with the composition according to the invention to apply once daily on the whole trunk. No concomitant treatment for psoriasis or else was used.
After 6 months, treatment with the composition was discontinued. Several months after discontinuation, the patient was questioned regarding the status of the disease.

Row | Structure (SMILES) | effect of earlier treatments on redness and psoriasis | status upon cessation of earlier treatments
1 | COc1cc(C)c(/C=C/C(C)=C/C=C/C(C)=C/C(=O)O)c(C)c1C [Acitretine] | reduced redness, but never the psoriasis itself | redness came back
2 | C[C@]12CCC(=O)C=C1CC[C@@H]1[C@@H]2[C@@H](O)C[C@@]2(C)[C@H]1CC[C@]2(O)C(=O)CO [hydrocortisone] | reduced redness, but never the psoriasis itself | redness came back
